{
  "source": "patent US20240016924A1",
  "about": "“NEW ADJUVANT TO IMPROVE THE INNATE IMMUNITY” (INSTITUT NATIONAL DE LA SANTÉ ET DE LA RECHERCHE MÉDICALE, priority 2020, published 2024)",
  "molecules": {"B1": {"name": "ovalbumin (protein, UniProt P01012 2-386, looked up)", "Ovalbumin": "GSIGAASMEFCFDVFKELKVHHANENIFYCPIAIMSALAMVYLGAKDSTRTQINKVVRFDKLPGFGDSIEAQCGTSVNVHSSLRDILNQITKPNDVYSFSLASRLYAEERYPILPEYLQCVKELYRGGLEPINFQTAADQARELINSWVESQTNGIIRNVLQPSSVDSQTAMVLVNAIVFKGLWEKAFKDEDTQAMPFRVTEQESKPVQMMYQIGLFRVASMASEKMKILELPFASGTMSMLVLLPDEVSGLEQLESIINFEKLTEWTSSNVMEERKIKVYLPRMKMEEKYNLTSVLMAMGITDVFSSSANLSGISSAESLKISQAVHAAHAEINEAGREVVGSAEAGVDAASVSEEFRADHPFLFCIKHIATNAVLFFGRCVSP", "notes": "model antigen, EndoFit Ovalbumin, Invivogen"}},
  "key": {"primary HNECs": {"test_system": "primary HNECs", "experiment": "Signaling inhibitors on P1-induced TSLP expression", "format": "cell-based, human", "procedure": "The expression of short and long form TSLP was quantified as described (Bjerkan, Schreurs et al. 2015, Dong, Hu et al. 2016). Briefly, total RNA was extracted using Trizol. Five hundred nanograms of RNA were treated with ezDNase Enzyme (Thermo Fisher) to remove genomic DNA, and reverse transcribed into cDNA using the kit SuperScript IV VILO Master Mix according to manufacturer instructions (Thermo Fisher). Quantitative PCR was performed using reported primers (Dong, Hu et al. 2016) and the PowerUp SYBR Green Master Mix according to manufacturer instructions (Thermo Fisher). Reactions were performed in triplicates, with glyceraldehyde-3-phosphate dehydrogenase (GAPDH) as the internal control. Amplification, data acquisition, and analysis were carried out using the LightCycler 480 Software (Roche, Mannheim, Germany). The levels of TSLP mRNA were normalized to the levels of GAPDH using the ΔCt method (Schmittgen and Livak 2008) and were presented as 2-ΔCt values.\nSignaling inhibitors Confluent HNEC cells in 24-well plate were pre-incubated with inhibitors for 1 h at 37° C. prior to P1 treatment. Inhibitors, namely dexamethasone (Dex) a NF-kB and MAPK inhibitor (used at 100 nM), and Cyclosporin A (CsA) a Calcineurin Inhibitor (used at 1.5 μM), were from Invivogen and used at the manufacturer's recommended concentrations. […]"}, "RPMI 2650 cells": {"test_system": "RPMI 2650 cells", "experiment": "TSLP secretion in nasal RPMI 2650 cell culture supernatants (ELISA)", "format": "cell-based, human", "procedure": "Nasal RPMI 2650 cells (isolated from the human nasal septum, squamous cell carcinoma, ATCC) were grown in MEMα (Minimum Essential Medium α, Thermo Fisher) supplemented with 10% fetal calf serum (FCS, Eurobio, Courtaboeuf, France) and 1% penicillin/streptomycin.\n(§1) TSLP, IL-25/IL-17E, IL-33, IFN-γ, IL-10, IL-12/23p40, IL-4, IL-5, IL-6, IL-13, TNF-α, MMP-9, IL-8/CXCL8, […], MDC/CCL22, TARC/CCL17, APRIL and BAFF were measured in culture supernatants from indicated experiments with custom multiplex Luminex assays (Bio-techne) according to the manufacturer's instructions. Additionally, when indicated TSLP was measured in culture supernatants by enzyme-linked immunosorbent assay (ELISA) with a limit of detection of 8 pg/ml (Thermo Fisher) according to the manufacturer's instructions.\nWe first investigate whether P1 induced TSLP secretion in nasal epithelium. Therefore, we cultured human nasal epithelial cells (RPMI 2650) with P1 Glade B for 2-24 hours at 37° C. and analyzed the culture supernatants for TSLP secretion."}, "nasal RPMI cells [1]": {"test_system": "nasal RPMI cells", "experiment": "Calcium measurement (Fura-2/AM), nasal RPMI cells", "format": "cell-based, human", "conditions": "P1 125 μM vs 2511M, controls at 125 μM, n=3", "procedure": "(§2) 70-80% confluent RPMI 2650 or HNEC cells in 24-well plate were loaded with […] Fura-2/AM (Molecular Probes) in basal medium without serum/growth factors for 1 hour at 37° C. Cells were washed twice with mammalian saline (Conche, Boulla et al. 2009) and measurements were performed in complete medium supplied with HEPS (10 mM) and CaCl2 (2 mM) as described add (Conche, Boulla et al. 2009). Images were acquired with an inverted fluorescence microscope (Observer Z1, Zeiss, Germany) and analyzed with MetaMorph software (Guichard, Bonilla et al. 2017) Calcium was measured every 5 seconds by video fluorescence imaging. Results were expressed as 340 nm to 380 nm fluorescence ratio and normalized to the baseline, i.e. ratio at time zero was set as 1."}, "primary HNEC cells": {"test_system": "primary HNEC cells", "experiment": "Calcium measurement (Fura-2/AM), primary HNEC cells", "format": "cell-based, human", "conditions": "P1 125 μM vs 2511M, controls at 125 μM, n=3", "procedure": "as §2"}, "nasal RPMI cells [2]": {"test_system": "nasal RPMI cells", "experiment": "Cytokines and chemokines quantification (Luminex), nasal RPMI cells", "format": "cell-based, human", "conditions": "125 μM, 24 hrs", "procedure": "as §1\nWe next investigated whether, in addition to TSLP, P1 could stimulate epithelial secretion of additional immune factors prone to attract antigen presenting cells (APCs). […] Together with TSLP (Zhou, Xu et al. 2018), this set of immune factors could facilitate recruitment of APCs to the mucosal surface for initiation of an immune response, since CCL20 and CCL2 chemo-attract macrophages and immature dendritic cells (DCs), and MMP-9 degrades the extracellular matrix and facilitates the migration of immune cells in or out the epithelium. Treg cells have IgA-inducing functions and require RA, TGF-b1, IL-10, and TSLP from intestinal epithelial cells and DCs. So, we assumed IL-10 released from either EC or DC may contribute to IgA class switching (Gutzeit, Magri, et al. 2014)."}, "autologous CD4+ T cells": {"test_system": "autologous CD4+ T cells", "experiment": "DC-T co-cultures, CD4+ T cell proliferation (CFSE)", "format": "cell-based, human", "conditions": "peptide-primed eduDCs, 125 μM, 5 days, DC/T 1:5", "procedure": "Autologous CD4+ T cells were purified from PMBCs by negative selection according to manufacturer instructions (StemCell Technologies, France) (purity>95%)\nDCs and confluent ECs were co-cultured overnight as described above, and DC-EC or eduDC was further incubated with P1 (clade B, 125 μM) or medium for 24 h. Then, DCs were separated and incubated with autologous CD4+ T cells pre-labeled with CFSE (Thermo Fisher) according to the manufacturer's instructions, at a ratio of 1:5 (DC/T). After 5 days of culture, CD4+ T cell proliferation was analyzed by flow cytometry as described (Yeh, Yeh et al. 2013, Qin, Yin et al. 2015) using Phytohaemagglutinin (PHA) (5 μg/mL) as positive control."}, "[3]": {"conditions": "intranasal immunization, gp140 antigen; Van Roey, Arias et al. 2012; cited from earlier work"}, "[4]": {"test_system": "CD8-depleted PBMCs cocultured with RPMI 2650 cells", "experiment": "In vitro immunization assay with ovalbumin", "format": "cell-based, human", "conditions": "OVA alone 10 μg/mL, no adjuvant", "procedure": "In vitro immunization assay was performed as reported (Jung, Matsumoto et al. 2007) with modifications. Briefly, 1×10^6 CD8-depleted PBMCs (Human CD8 Depletion Cocktail, StemCell Technologies, France) were cocultured for 24 hrs with RPMI 2650 cells ([…]) pre-seeded in 48 well plates for 48 hrs. Then, ovalbumin (OVA, EndoFit Ovalbumin, 10 µg/mL, Invivogen) alone, OVA together with P1 (5 μM, 25 μM, 125 μM), OVA together with P1 mutant (P1mut, 125 μM), or medium were added to in RPMI 1640 medium supplemented with Non-Essential Amino Acids (NEAA solution, Thermo Fisher), IL-4 ([…]), IL-2 (10 UI/mL) and 2-mercaptoethanol (20 μM) for 7 days.\nFor the detection of OVA-specific B cells, at indicated time of culture, PMBCs were surface stained with ovalbumin conjugated to fluorescein (OVA-FITC, 20 ug/mL, Thermo), PE-conjugated mouse anti-human CD20 (BD Biosciences, CA, USA), APC-conjugated goat anti-human IgA or donkey anti-human IgG (Jackson ImmunoResearch, PA, USA) as indicated by the manufacturer. Specific labeling was quantified by flow cytometry with a Guava EasyCyte flow cytometer (Merck-Millipore), and analyzed with the dedicated InCyte software, using the following strategy: CD20+ B cells were first gated and cell double positive for OVA-FITC+ and APC-conjugated anti-IgA or anti-IgG were determined as OVA-IgA or IgG-specific B-cell s.\nIn vitro immunization assays have been used to produce specific monoclonal antibodies using a defined antigen complemented with an adjuvant (Borrebaeck, Danielsson et al. 1987). Here, we establish a mucosal immunization model adapted from (Jung, Matsumoto et al. 2007, Yeh, Yeh et al. 2013, Wijkhuisen, Savatier et al. 2016) and using mucosal DCs based on our results presented above. OVA was selected as the model antigen. Therefore, human CD8-depleted PBMCs (n=5 independent donors) were cocultured with RPMI 2650 cells for one day to educate DCs, and prior to addition of either medium, OVA, OVA plus P1 mutant (P1mut, 125 μM) or OVA plus P1 (5 μM, 25 μM, 125 μM) for seven more days. OVA-specific B cells were quantified by flow cytometry using FITC-conjugated OVA and anti-CD2O-PE to gate on OVA-specific B cells. The Ig isotype of surface B cell receptor (BCR) was next characterized by APC-conjugated anti-human-IgA or anti-human-IgG. […] Similar results were obtained when B cells were stained with anti-CD19-PE."}},
  "data": [
    {"molecule": "CC(C)CC(=O)N1CCN(C(=O)CCCCCN)CC1", "note": "[ENMD-1068]", "values": [
      {"measurement": "reduction of P1-induced TSLP expression", "setting": "primary HNECs; 1 h pre-treatment before P1, CsA 1.5 μM, ENMD-1068 500 μg/mL, n=3", "result": "46±24", "unit": "%"},
      {"measurement": "P1-induced up-regulation of miR-4485-3p", "setting": "primary HNECs; inhibitor pre-treatment before P1", "result": "blocked the up-regulation of miR-4485-3p"}
    ]},
    {"molecule": "SQIQQKKNEQDLLALDKWANLWNWFDISNWLWYIR (Synthetic P1 clade A) [P1 Glade A]", "values": [
      {"measurement": "Reduction of TSLP secretion compared to clade B P1", "setting": "RPMI 2650 cells; 125 uM, p<0.05, n=5", "result": 20, "unit": "%"},
      {"measurement": "Secretion of TSLP", "setting": "RPMI 2650 cells; peptide at 125 uM, 4 hours, n=5", "result": "41.8 ± 2.6", "unit": "pg/mL"}
    ]},
    {"molecule": "SQTQQEKNEQELLALDSWKNLWNWFSITNWLWYIK [P1 Glade C]", "values": [
      {"measurement": "Induction of TSLP secretion by P1 variants", "setting": "RPMI 2650 cells; RPMI nasal cells, 4 hours", "result": "failed to induce TSLP secretion"},
      {"measurement": "extracellular calcium influx (340/380 nm ratio)", "setting": "nasal RPMI cells [1]", "result": "fails to raise the calcium level significantly"},
      {"measurement": "extracellular calcium influx (340/380 nm ratio)", "setting": "primary HNEC cells", "result": "fails to raise the calcium level significantly"},
      {"measurement": "secretion of MMP-9, CCL20, CCL2 and IL-10", "setting": "nasal RPMI cells [2]", "result": "unable to stimulate significant MMP-9, CCL-20 CCL2 or IL-10 production"},
      {"measurement": "proliferation of autologous CD4+ T cells", "setting": "autologous CD4+ T cells", "result": "has no effect"}
    ]},
    {"molecule": "Thymic stromal lymphopoietin [TSLP]", "values": [
      {"measurement": "humoral response as mucosal adjuvant", "setting": "[3]", "result": "induced a strong humoral response both in serum and at genital level"}
    ]},
    {"molecule": "B1", "values": [
      {"measurement": "induction of OVA-specific B cells", "setting": "[4]", "result": "failed to induce OVA-specific specific B cells"}
    ]}
  ]
}
